Source: patent US12612410B2 (CHILDREN'S HOSPITAL MEDICAL CENTER, priority 2020, dated 2026)

Experiments:
IRAK1 = biological target: T1, IRAK1 (Homo sapiens, UniProt P51617); assay: RBC HotSpot Kinase Assay, IRAK1; format: biochemical; details: isolated kinase, 33P-ATP
T1 construct: purchased Reaction Biology (RBC), HotSpot kinase assay
Excerpt: (§1) This assay uses the isolated kinase enzyme. This assay is very useful for determining competition of the inhibitor for ATP and/or substrates and for measuring the kinetics of enzyme inhibition. […] Unlike kinase binding assays that measure competition for ATP, the HotSpot Kinase Assay is a functional assay that measures catalytic activity; as such it measures relative functional potency regardless of the mechanism of enzyme inhibition. This assay uses the form of the various enzymes that are easiest to express, which may not necessarily be the form of the enzyme that exist in the cell. (Sometimes the carboxy terminus has been truncated to aid in expression, or, if it is a receptor kinase, the enzyme itself is isolated from the other parts of the receptor that are involved in regulating kinase activity.)
(§2) The reagent used was as follows: Base Reaction buffer; 20 mM Hepes (pH 7.5), 10 mM MgCl2, 1 mM EGTA, 0.01% Brij35, 0.02 mg/ml BSA, 0.1 mM Na3VO4, 2 mM DTT, 1% DMSO. Required cofactors were added individually to each kinase reaction.
(§3) The reaction procedure was as follows: • 1) Substrates were prepared in freshly prepared Reaction Buffer. • 2) Any required cofactors were delivered to the substrate solution above. • 3) Kinase was delivered into the substrate solution and gently mixed. • 4) Compounds were delivered in 100% DMSO into the kinase reaction mixture by Acoustic technology (Echo550; nanoliter range), followed by incubation for 20 min at room temp. • 5)^33P-ATP was delivered into the reaction mixture to initiate the reaction. • 6) The mixture was incubated for 2 hours at room temperature. • 7) Kinase activity was detected by P81 filter-binding method.

FLT3 = biological target: T2, FLT3 (Homo sapiens, UniProt P36888); assay: RBC HotSpot Kinase Assay, FLT3; format: biochemical; parameters: purchased Reaction Biology (RBC), HotSpot kinase assay; details: isolated kinase, 33P-ATP
T2 sequence (P36888 27-993): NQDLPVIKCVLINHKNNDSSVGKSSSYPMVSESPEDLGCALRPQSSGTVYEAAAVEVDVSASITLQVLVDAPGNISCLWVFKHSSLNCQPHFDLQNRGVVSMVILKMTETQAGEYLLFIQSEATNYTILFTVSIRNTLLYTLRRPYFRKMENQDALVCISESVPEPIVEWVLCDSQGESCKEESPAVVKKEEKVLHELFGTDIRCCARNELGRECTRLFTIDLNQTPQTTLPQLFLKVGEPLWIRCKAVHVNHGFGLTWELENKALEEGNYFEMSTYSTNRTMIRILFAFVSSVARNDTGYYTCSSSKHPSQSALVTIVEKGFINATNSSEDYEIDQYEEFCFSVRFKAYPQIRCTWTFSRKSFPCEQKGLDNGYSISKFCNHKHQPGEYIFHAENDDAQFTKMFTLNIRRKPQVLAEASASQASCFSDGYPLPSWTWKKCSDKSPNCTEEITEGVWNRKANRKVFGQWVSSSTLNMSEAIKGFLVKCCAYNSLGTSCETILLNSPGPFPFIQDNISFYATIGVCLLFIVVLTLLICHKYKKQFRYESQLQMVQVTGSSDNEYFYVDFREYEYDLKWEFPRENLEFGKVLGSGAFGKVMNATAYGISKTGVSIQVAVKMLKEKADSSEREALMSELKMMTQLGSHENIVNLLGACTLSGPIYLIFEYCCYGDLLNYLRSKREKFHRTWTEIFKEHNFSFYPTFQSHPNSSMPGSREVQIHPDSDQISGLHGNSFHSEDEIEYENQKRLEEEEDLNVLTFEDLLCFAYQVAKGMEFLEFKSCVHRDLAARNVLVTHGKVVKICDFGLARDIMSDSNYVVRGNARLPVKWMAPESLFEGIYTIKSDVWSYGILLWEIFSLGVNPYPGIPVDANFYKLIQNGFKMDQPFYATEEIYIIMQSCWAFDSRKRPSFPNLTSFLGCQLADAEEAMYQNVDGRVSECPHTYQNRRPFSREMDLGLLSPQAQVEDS
Excerpt: as §1, §2, §3

MOLM14 D835Y cells = assay: MOLM14 D835Y cell viability assay (Cell Titer Glo); format: cell-based
Procedure: (§4) Both cell lines have activated FLT3 receptors, each of which carry additional resistance mutations in the kinase domain (D835Y and F691L, respectively).
(§5) MOLM14 D835Y and MOLM14 F691L cells were grown in RPMI-1640 media supplemented with 20% fetal bovine serum (FBS). For viability/cytotoxicity assessments, cells were seeded into 1536-well white polystyrene tissue culture-treated Greiner plates using a Multidrop Combi dispenser (ThermoFisher), in final volume 5 μL of growth media per well, at a density of 1000 cells per well. After cell addition, 23 nL of test compound were transferred into individual wells (22 doses tested for each test compound, with a 1:2 dilution series starting at 10 μM) via a 1536 pin-tool. Bortezomib (final concentration 2.3 μM) was used as a positive control for cell cytotoxicity. Plates were incubated for 48 hours at standard incubator conditions covered by a stainless steel gasketed lid to prevent evaporation. 48 hours post compound addition, 3 μL of Cell Titer Glo (Promega) were added to each well and plates were incubated at room temperature for 15 minutes with the stainless-steel lid in place. Luminescence readings were taken using a Viewlux imager (PerkinElmer) with a 2 second exposure time per plate.

MOLM14 F691L cells = assay: MOLM14 F691L cell viability assay (Cell Titer Glo); format: cell-based
Procedure: as §4, §5

IRAK4 = biological target: T3, IRAK4 (Homo sapiens, UniProt Q9NWZ3); assay: RBC HotSpot Kinase Assay, IRAK4; format: biochemical; parameters: purchased Reaction Biology (RBC), HotSpot kinase assay; details: isolated kinase, 33P-ATP
T3 sequence (Q9NWZ3 1-460): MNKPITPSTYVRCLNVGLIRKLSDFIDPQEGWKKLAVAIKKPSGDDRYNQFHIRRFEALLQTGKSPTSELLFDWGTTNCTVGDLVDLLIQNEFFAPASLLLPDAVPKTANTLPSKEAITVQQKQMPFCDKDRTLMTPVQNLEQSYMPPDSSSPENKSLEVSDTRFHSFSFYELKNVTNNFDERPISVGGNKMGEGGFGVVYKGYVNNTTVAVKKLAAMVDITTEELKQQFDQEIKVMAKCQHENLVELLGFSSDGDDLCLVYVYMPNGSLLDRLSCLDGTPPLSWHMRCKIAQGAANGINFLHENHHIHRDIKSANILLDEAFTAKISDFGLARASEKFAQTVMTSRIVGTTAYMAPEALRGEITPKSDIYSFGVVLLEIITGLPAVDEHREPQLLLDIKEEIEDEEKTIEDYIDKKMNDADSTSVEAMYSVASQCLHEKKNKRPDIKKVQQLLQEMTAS
Excerpt: as §1, §2, §3

T1 sequence (P51617 whole entry): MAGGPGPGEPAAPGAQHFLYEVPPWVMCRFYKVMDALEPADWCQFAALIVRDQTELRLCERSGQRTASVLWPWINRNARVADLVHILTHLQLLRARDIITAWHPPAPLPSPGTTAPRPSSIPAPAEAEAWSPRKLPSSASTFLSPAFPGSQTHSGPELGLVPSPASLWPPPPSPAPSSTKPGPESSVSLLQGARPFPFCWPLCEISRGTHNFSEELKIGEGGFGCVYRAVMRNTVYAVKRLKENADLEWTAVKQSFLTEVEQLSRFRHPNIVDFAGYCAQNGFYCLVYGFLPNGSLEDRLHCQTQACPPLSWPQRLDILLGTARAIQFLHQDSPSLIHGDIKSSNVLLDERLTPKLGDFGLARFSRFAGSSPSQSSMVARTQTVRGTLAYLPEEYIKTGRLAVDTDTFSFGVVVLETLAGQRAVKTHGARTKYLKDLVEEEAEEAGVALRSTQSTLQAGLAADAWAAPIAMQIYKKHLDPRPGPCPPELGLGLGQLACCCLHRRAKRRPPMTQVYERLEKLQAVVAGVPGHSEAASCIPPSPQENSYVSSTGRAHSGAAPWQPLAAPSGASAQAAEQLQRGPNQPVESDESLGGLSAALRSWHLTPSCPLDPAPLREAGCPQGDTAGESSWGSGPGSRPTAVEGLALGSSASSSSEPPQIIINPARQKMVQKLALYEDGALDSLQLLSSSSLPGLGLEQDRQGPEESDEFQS

| SMILES | IC50 (IRAK1) | IC50 (FLT3) | IC50 (MOLM14 D835Y cells; Homo sapiens, MOLM-14, 48 h) | IC50 (MOLM14 F691L cells; Homo sapiens, MOLM-14, 48 h) | IC50 (IRAK4) | IC50 (MOLM14 D835Y cells; 48 hours) | IC50 (MOLM14 F691L cells; 48 hours) |
| --- | --- | --- | --- | --- | --- | --- | --- |
| CC(O)(c1cn2c(-c3cc(F)cc(N[C@@H]4CCCNC4)n3)cnc2cn1)C(F)(F)F (single isomer, unassigned) [Compound 85] | 106 nM | 0.6 nM | 154 nM | 290 nM | 54 nM |  |  |
| CC(O)(c1cn2c(-c3nc(N[C@@H]4CCCNC4)c(F)cc3F)cnc2cn1)C(F)(F)F (single isomer, unassigned) [Compound 89] | 9 nM | < 0.5 nM |  | 649 nM | < 0.5 nM | 41 nM |  |
| CC(O)(c1cn2c(-c3nc(N[C@@H]4CCCNC4)c(F)cc3F)cnc2cn1)C(F)(F)F (single isomer, unassigned) [Compound 90] | 16 nM | 2 nM |  |  | 7 nM | 96 nM | 817 nM |
| CC(O)(c1cn2c(-c3nc(N[C@H]4CNC[C@@H]4F)c(F)cc3F)cnc2cn1)C(F)(F)F (single isomer, unassigned) [Compound 91] | 40 nM | 3 nM |  | 1540 nM | 2 nM | 195 nM |  |
| CC(O)(c1cn2c(-c3nc(N[C@H]4CNCC[C@@H]4F)c(F)cc3F)cnc2cn1)C(F)(F)F (single isomer, unassigned) [Compound 92] | 11 nM | 2 nM | 87 nM | 969 nM | 2 nM |  |  |
| CC(O)(c1cn2c(-c3nc(N[C@H]4CNC[C@@H]4F)c(F)cc3F)cnc2cn1)C(F)(F)F (single isomer, unassigned) [Compound 93] | 8 nM | 1 nM |  |  | < 0.5 nM | 73 nM | 969 nM |
| CC(O)(c1cn2c(-c3nc(N[C@H]4CNCC[C@@H]4F)c(F)cc3F)cnc2cn1)C(F)(F)F (single isomer, unassigned) [Compound 94] | 8 nM | 1 nM |  |  | 0.8 nM | 77 nM | 864 nM |
| CC1(c2cn3c(-c4cccc(N[C@@H]5CCCNC5)n4)cnc3cn2)CC1 [Compound 2, (R)-6-(6-(1-methylcyclopropyl)imidazo[1,2-a]pyrazin-3-yl)-N-(piperidin-3-yl)pyridin-2-amine] | 67 nM | < 0.5 nM | 7 nM | 34 nM | 0.7 nM |  |  |
| F[C@H]1CNC[C@@H]1Nc1cccc(-c2cnc3cnc(C4(C(F)(F)F)CC4)cn23)n1 [Compound 8, N-((3S,4S)-4-fluoropyrrolidin-3-yl)-6-(6-(1-(trifluoromethyl)cyclopropyl)imidazo[1,2-a]pyrazin-3-yl)pyridin-2-amine] | 138 nM | < 0.5 nM | 44 nM | 376 nM | 2 nM |  |  |
| FC(F)(F)C1(c2cn3c(-c4cccc(N[C@@H]5CCCNC5)n4)cnc3cn2)CC1 [Compound 9, (R)-N-(piperidin-3-yl)-6-(6-(1-(trifluoromethyl)cyclopropyl)imidazo[1,2-a]pyrazin-3-yl)pyridin-2-amine] | 126 nM | < 0.5 nM | 18 nM | 106 nM | 7 nM |  |  |
| FC(F)(F)C1(c2cn3c(-c4cccc(N[C@H]5CNCC56CC6)n4)cnc3cn2)CC1 [Compound 12, (R)-N-(6-(6-(1-(trifluoromethyl)cyclopropyl)imidazo[1,2-a]pyrazin-3-yl)pyridin-2-yl)-5-azaspiro[2.4]heptan-7-amine] | 165 nM | < 0.5 nM | 7 nM | 72 nM | 3 nM |  |  |
| Cn1cc(-c2cn3c(-c4cccc(N[C@@H]5CCNC5)n4)cnc3cn2)cn1 [Compound 49, (R)-6-(6-(1-methyl-1H-pyrazol-4-yl)imidazo[1,2-a]pyrazin-3-yl)-N-(pyrrolidin-3-yl)pyridin-2-amine] | 196 nM | < 0.5 nM | 9 nM |  | 1 nM |  |  |
| CC(O)(c1cn2c(-c3cccc(N[C@@H]4CCCNC4)n3)cnc2cn1)C(F)(F)F (stereo partly drawn) [Compound 79, 1,1,1-trifluoro-2-(3-(6-((R)-piperidin-3-ylamino)pyridin-2-yl)imidazo[1,2-a]pyrazin-6-yl)propan-2-ol] |  |  | 84 nM | 237 nM |  |  |  |

Next, values leading:

| IC50 (IRAK1) | IC50 (FLT3) | IC50 (MOLM14 D835Y cells; Homo sapiens, MOLM-14, 48 h) | IC50 (MOLM14 F691L cells; Homo sapiens, MOLM-14, 48 h) | IC50 (IRAK4) | IC50 (MOLM14 D835Y cells; 48 hours) | IC50 (MOLM14 F691L cells; 48 hours) | SMILES |
| --- | --- | --- | --- | --- | --- | --- | --- |
| 329 nM | < 0.5 nM | 344 nM | 486 nM | 28 nM |  |  | CC(O)(c1cn2c(-c3cc(F)cc(N[C@H]4CNC[C@@H]4F)n3)cnc2cn1)C(F)(F)F (single isomer, unassigned) [Compound 83] |
| 114 nM | 0.6 nM |  |  | 2 nM | 183 nM | 410 nM | CC(O)(c1cn2c(-c3cc(F)cc(N[C@H]4CNC[C@@H]4F)n3)cnc2cn1)C(F)(F)F (single isomer, unassigned) [Compound 84] |
| 144 nM | 0.9 nM |  | 365 nM | 65 nM | 205 nM |  | CC(O)(c1cn2c(-c3cc(F)cc(N[C@H]4CNCC[C@@H]4F)n3)cnc2cn1)C(F)(F)F (single isomer, unassigned) [Compound 86] |
| 46 nM | 0.7 nM |  |  | 5 nM | 116 nM | 309 nM | CC(O)(c1cn2c(-c3cc(F)cc(N[C@@H]4CCCNC4)n3)cnc2cn1)C(F)(F)F (single isomer, unassigned) [Compound 87] |
| 69 nM | 1 nM |  |  | 15 nM | 97 nM | 217 nM | CC(O)(c1cn2c(-c3cc(F)cc(N[C@H]4CNCC[C@@H]4F)n3)cnc2cn1)C(F)(F)F (single isomer, unassigned) [Compound 88] |
